Experimental data published in patent US20240245783A1, “METALLO-BETA-LACTAMASE INHIBITOR” (priority 2021, published 2024).

How the values were obtained:
[1] = test system: multidrug-resistant Pseudomonas aeruginosa; assay: Growth suppression of multidrug-resistant Pseudomonas aeruginosa clinical isolates (Test Example 7); format: cell-based; settings: MEPM 2 μg/ml alone, compound 8 20 μM (15.5 μg/ml) alone, Combination = both, 3 wells
Protocol: The effect of NODA-GA-conjugated doripenem (compound 8) on the susceptibility of a Pseudomonas aeruginosa clinical isolate to a carbapenem antibacterial agent was evaluated by the following method. The Pseudomonas aeruginosa clinical isolate was cultured overnight with shaking in LB medium. The bacterial solution was diluted to 1/1000 with LB medium, used as a test bacterial solution, and then seeded in a 96-well plate. Meropenem (Wako Pure Chemical Industries, Ltd.) was added to this bacterial solution in such a manner that the concentration was 2 μg/ml. The effect of NODA-GA-doripenem alone was also examined. The bacteria were cultured in an incubator at 37° C. for one day, and the growth at that time was measured by turbidity (655 nm).
MEPM in Table 1 is meropenem (2 μg/ml) administered alone; NODA-GA-doripenem is compound 8 (20 μM; 15.5 μg/ml) administered alone; Combination means a combined use of meropenem (2 μg/ml) and compound 8 (20 μM; 15.5 μg/ml).

[2] = test system: IMP-1-expressing Klebsiella pneumoniae; assay: Survival of Leukopenia mice infected with IMP-1-expressing Klebsiella pneumoniae (Test Example 6); format: in vivo; settings: meropenem 10 mg/kg alone subcutaneously; 48 hours; Leukopenia ddY mice
Protocol: DTPA-conjugated cefalexin (compound 1)'s effect of enhancing the drug susceptibility of pathogenic bacteria was examined by an in vivo experiment using bacteria-infected mice. To prepare a compromised Leukopenia mouse model, 0.1 mL of cyclophosphamide monohydrate (Sigma-Aldrich) prepared with PBS was administered intraperitoneally to 4-week-old male ddY mice (Japan SLC) at 250 mg/kg at 4 days before infection. IMP-1-expressing Klebsiella pneumoniae used herein was a clinical isolate provided by Kumamoto University Hospital. The bacteria were cultured overnight with shaking in LB medium at 37° C., then diluted 50-fold with LB medium, and further cultured with shaking, so that the turbidity (600 nm) was 1.5 or higher. The bacteria were centrifuged to remove the medium, washed twice with PBS, and then diluted with PBS to 5×10^5 CFU/mL. In the mouse infection experiment, each Leukopenia mouse was infected with 0.1 mL (5×10^4 CFU) of IMP-1-expressing Klebsiella pneumoniae by intraperitoneal injection. Thirty minutes after infection, 0.1 mL of a mixed solution containing meropenem (Wako Pure Chemical Industries, Ltd.) and compound 1 (DTPA-CEF) was subcutaneously administered to each mouse of a treatment mouse group at 10 mg/kg and 50 mg/kg, respectively. […] Forty-eight hours after infection, mice were assessed for viability. […]

[3] = test system: E. coli clinical isolate expressing IMP-1; assay: Meropenem MIC against E. coli clinical isolate expressing IMP-1 (Test Example 10); format: cell-based; settings: Escherichia coli, 24 h, read-out: minimum inhibitory concentration
Protocol: The enhancing effect of DTPA-ADCA on the susceptibility of E. coli clinical isolate expressing IMP-1 to a carbapenem antibacterial agent (meropenem) was evaluated by the following method. The E. coli clinical isolate was cultured overnight with shaking in LB medium. The bacterial solution was diluted to 1/1000 with LB medium, used as a test bacterial solution, and then seeded in a 96-well plate. Meropenem (Wako Pure Chemical Industries, Ltd.) was added to the bacterial solution, thereby performing two-step dilution from a maximum of 10 μg/ml. The bacteria were cultured in an incubator at 37° C. for one day, and growth at that time was measured by turbidity (655 nm). The meropenem concentration at which no bacterial growth had been observed was defined as the minimum inhibitory concentration.
The effect of DTPA-ADCA on the susceptibility of an E. coli clinical isolate to meropenem was evaluated by the following method. The E. coli clinical isolate was cultured overnight with shaking in LB medium. The bacterial solution was diluted to 1/1000 with LB medium, used as the test bacterial solution, and then seeded in a 96-well plate. Meropenem (Wako Pure Chemical Industries, Ltd.) was added to this bacterial solution in the range of 0.1 μg/ml to 0.005 μg/ml. Here, DTPA or DTPA-ADCA was used in combination therewith at a concentration of […], and the effect on bacterial growth was examined. The bacteria were cultured in an incubator at 37° C. for one day, and the growth at that time was measured by turbidity (655 nm).
FIG. 20 depicts the results. Multidrug-resistant E. coli was cultured with compounds having the indicated concentrations and the bacterial load was assessed by turbidity after 24 hours. […] Combined use of DTPA-ADCA (20 μM) reduced the minimum inhibitory concentration of meropenem to […] and enhanced the antibacterial activity by 100 times.

C[C@@H](O)[C@H]1C(=O)N2C(C(=O)O)=C(S[C@@H]3CN[C@H](C(=O)N(C)C)C3)[C@H](C)[C@H]12 [meropenem, reference compound]
suppression of bacterial growth ([1]; strain 808#1): X (x indicates that the number of wells in which suppression of bacterial growth was confirmed was 1 or less) | suppression of bacterial growth ([1]; strain 808#2): X (x indicates that the number of wells in which suppression of bacterial growth was confirmed was 1 or less) | suppression of bacterial growth ([1]; strain MR1): X (x indicates that the number of wells in which suppression of bacterial growth was confirmed was 1 or less) | suppression of bacterial growth ([1]; strain MR2): X (x indicates that the number of wells in which suppression of bacterial growth was confirmed was 1 or less) | suppression of bacterial growth ([1]; strain MR3): X (x indicates that the number of wells in which suppression of bacterial growth was confirmed was 1 or less) | suppression of bacterial growth ([1]; strain MR4): X (x indicates that the number of wells in which suppression of bacterial growth was confirmed was 1 or less) | suppression of bacterial growth ([1]; strain MR5): X (x indicates that the number of wells in which suppression of bacterial growth was confirmed was 1 or less) | suppression of bacterial growth ([1]; strain MR6): X (x indicates that the number of wells in which suppression of bacterial growth was confirmed was 1 or less) | suppression of bacterial growth ([1]; strain MR7): X (x indicates that the number of wells in which suppression of bacterial growth was confirmed was 1 or less) | suppression of bacterial growth ([1]; strain MR8): X (x indicates that the number of wells in which suppression of bacterial growth was confirmed was 1 or less) | suppression of bacterial growth ([1]; strain MR9): X (x indicates that the number of wells in which suppression of bacterial growth was confirmed was 1 or less) | suppression of bacterial growth ([1]; strain MR10): X (x indicates that the number of wells in which suppression of bacterial growth was confirmed was 1 or less) | suppression of bacterial growth ([1]; strain MR11): X (x indicates that the number of wells in which suppression of bacterial growth was confirmed was 1 or less) | suppression of bacterial growth ([1]; strain MR12): X (x indicates that the number of wells in which suppression of bacterial growth was confirmed was 1 or less) | suppression of bacterial growth ([1]; strain MR13): X (x indicates that the number of wells in which suppression of bacterial growth was confirmed was 1 or less) | suppression of bacterial growth ([1]; strain MR14): X (x indicates that the number of wells in which suppression of bacterial growth was confirmed was 1 or less) | suppression of bacterial growth ([1]; strain MR15): X (x indicates that the number of wells in which suppression of bacterial growth was confirmed was 1 or less) | suppression of bacterial growth ([1]; strain MR16): X (x indicates that the number of wells in which suppression of bacterial growth was confirmed was 1 or less) | suppression of bacterial growth ([1]; strain NM1): X (x indicates that the number of wells in which suppression of bacterial growth was confirmed was 1 or less) | suppression of bacterial growth ([1]; strain NM2): X (x indicates that the number of wells in which suppression of bacterial growth was confirmed was 1 or less) | suppression of bacterial growth ([1]; strain NM3): X (x indicates that the number of wells in which suppression of bacterial growth was confirmed was 1 or less) | suppression of bacterial growth ([1]; strain NM4): X (x indicates that the number of wells in which suppression of bacterial growth was confirmed was 1 or less) | suppression of bacterial growth ([1]; strain NM5): X (x indicates that the number of wells in which suppression of bacterial growth was confirmed was 1 or less) | survival [2]: All mice of the meropenem administration group died | MIC [3]: 10 µg/mL
